The source made the active and inactive calls. The calls are words filed in the database; no cut-off is given here.
How the values were obtained:
Assay type in all cases: cell-based
P-selectin = target: T1, P-selectin (Homo sapiens, UniProt P16109); assay: (§1) Displacement of immobilized sulfatide from P-selectin transfected in african green monkey COS cells by IgG-based competitive ELISA
T1 sequence (P16109 whole entry): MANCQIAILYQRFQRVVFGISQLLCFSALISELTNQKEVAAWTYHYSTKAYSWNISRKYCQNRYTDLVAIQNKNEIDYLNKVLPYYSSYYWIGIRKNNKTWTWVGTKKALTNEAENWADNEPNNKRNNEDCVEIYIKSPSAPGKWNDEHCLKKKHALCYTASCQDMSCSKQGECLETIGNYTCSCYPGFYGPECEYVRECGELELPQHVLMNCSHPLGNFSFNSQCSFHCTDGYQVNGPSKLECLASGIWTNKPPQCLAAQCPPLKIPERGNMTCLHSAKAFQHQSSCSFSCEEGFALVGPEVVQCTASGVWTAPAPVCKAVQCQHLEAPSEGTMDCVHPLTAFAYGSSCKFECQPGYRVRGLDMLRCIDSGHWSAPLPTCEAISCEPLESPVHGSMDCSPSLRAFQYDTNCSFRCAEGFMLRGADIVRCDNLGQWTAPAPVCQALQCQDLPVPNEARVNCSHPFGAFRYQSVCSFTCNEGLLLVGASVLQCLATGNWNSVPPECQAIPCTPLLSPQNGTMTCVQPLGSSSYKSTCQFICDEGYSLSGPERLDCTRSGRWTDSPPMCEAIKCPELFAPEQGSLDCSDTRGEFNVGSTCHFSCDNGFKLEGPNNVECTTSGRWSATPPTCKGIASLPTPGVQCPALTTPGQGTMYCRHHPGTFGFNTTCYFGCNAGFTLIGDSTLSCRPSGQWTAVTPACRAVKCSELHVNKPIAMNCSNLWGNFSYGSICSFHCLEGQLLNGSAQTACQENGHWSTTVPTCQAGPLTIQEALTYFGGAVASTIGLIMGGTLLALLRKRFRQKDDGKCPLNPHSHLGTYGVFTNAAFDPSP

[1] = target: T2, P-selectin (Homo sapiens) (UniProt P16109); assay: Inhibition of human P-selectin-dependent adhesion of activated platelets to HL60 cells after 30 mins by flow cytometry; settings: HL-60
T2 sequence (whole entry): T1 sequence (P16109 whole entry)

[2] = Inhibition of human P-selectin receptor globulin adhesion to HL60 cells; settings: HL-60
[3] = target: T2, P-selectin (Homo sapiens); assay: as §1

Q: Which results are given for CCCCCCCCCCCCCCCC(=O)OCC(CO[C@H]1O[C@H](CS(=O)(=O)O)[C@@H](O)[C@H](O)[C@H]1O)OC(=O)CCCCCCCCCCCCCCC (stereo partly specified) [SULFONOQUINOVOSYL DIPALMITOYL GLYCERIDE]?
A: IC50 (P-selectin): 5000 nM; inhibition [1]: 24%; IC50 [2]: 40 µM

Q: Which results are given for CCCCC/C=C/C/C=C/CCCCCCCC(=O)OC(COC(=O)CCCCCCCCCCCCCCC)COP(=O)(O)OCC(O)CO (stereo unspecified) [PHOSPHATIDYL GLYCEROL]?
A: IC50 (P-selectin): 1000 nM; inhibition [1]: 0%

Q: For CCCCCCCCCCCCCC(=O)OCC(COP(=O)(O)OCCN)OC(=O)CCCCCCCCCCCCC (stereo unspecified), which Activity [3] is on record?
A: inactive

— ChEMBL document CHEMBL1146397, “Isolation and structure determination of sulfonoquinovosyl dipalmitoyl glyceride, a P-selectin receptor inhibitor from the alga Dictyochloris fragrans” (J Nat Prod, 1997)
